“And” between values parts separate entries of the source, which are not always exact repeats. Equal values may be shown once. Marks after values point to notes of the source that are not given here.
Tested on: male rats
Experiment: 28-day repeated dose study, plasma metabolite profiling (GC-MS, LC-MS), male rats
Format: in vivo, rat
Source text: Drinking water was also offered ad libitum.

3-Hydroxybutyrate, plasma, treatment ratio versus control (day 7): 0.24* and 0.21*
3-O-Methylsphingosine (d18:1), plasma, treatment ratio versus control (day 7): 0.22
5-O-Methylsphingosine (d18:1), plasma, treatment ratio versus control (day 7): 0.19
5-Oxoproline, plasma, treatment ratio versus control (day 7): 0.65*
Arginine, plasma, treatment ratio versus control (day 7): 1.37*
Campesterol, plasma, treatment ratio versus control (day 7): 0.24*
Ceramide (d18:1,C24:0), plasma, treatment ratio versus control (day 7): 0.59*
Ceramide (d18:1,C24:1), plasma, treatment ratio versus control (day 7): 0.47*
Cholesterol, plasma, treatment ratio versus control (day 7): 0.3
Choline plasmalogen No 03, plasma, treatment ratio versus control (day 7): 0.51*
Coenzyme Q9, plasma, treatment ratio versus control (day 7): 0.21*
Coenzyme Q10, plasma, treatment ratio versus control (day 7): 0.33*
Glutamate, plasma, treatment ratio versus control (day 7): 0.72
Glutamine, plasma, treatment ratio versus control (day 7): 0.65*
Histidine, plasma, treatment ratio versus control (day 7): 1.21*
Homovanillic acid (HVA), plasma, treatment ratio versus control (day 7): 0.21*
Isopalmitic acid (C16:0), plasma, treatment ratio versus control (day 7): 0.46*
Lignoceric acid (C24:0), plasma, treatment ratio versus control (day 7): 0.36
Linoleic acid (C18:cis[9,12]2), plasma, treatment ratio versus control (day 7): 0.44*
Lysine, plasma, treatment ratio versus control (day 7): 6.14*
Myristic acid (C14:0), plasma, treatment ratio versus control (day 7): 0.54
Oleic acid (C18:cis[9]1), plasma, treatment ratio versus control (day 7): 0.87
Palmitic acid (C16:0), plasma, treatment ratio versus control (day 7): 0.42*
Palmitoleic acid (C16:cis[9]1), plasma, treatment ratio versus control (day 7): 0.66
Phosphatidylcholine (C16:0,C18:2), plasma, treatment ratio versus control (day 7): 0.89*
Phosphatidylcholine (C18:1,C18:2), plasma, treatment ratio versus control (day 7): 0.74*
Serine, plasma, treatment ratio versus control (day 7): 1.36*
Sphingomyelin (d18:1,C16:0), plasma, treatment ratio versus control (day 7): 0.84*
Sphingomyelin (d18:1,C24:0), plasma, treatment ratio versus control (day 7): 0.52*
Sphingomyelin (d18:2,C16:0), plasma, treatment ratio versus control (day 7): 0.58*
Stearic acid (C18:0), plasma, treatment ratio versus control (day 7): 0.34*
TAG (C16:0,C16:1), plasma, treatment ratio versus control (day 7): 0.47
Threonine, plasma, treatment ratio versus control (day 7): 1.46*
alpha-Tocopherol, plasma, treatment ratio versus control (day 7): 0.52*
beta-Sitosterol, plasma, treatment ratio versus control (day 7): 0.43*
erythro-Sphingosine, plasma, treatment ratio versus control (day 7): 0.21
threo-Sphingosine, plasma, treatment ratio versus control (day 7): 0.25
Lysophosphatidylcholine (C20:4), plasma, treatment ratio versus control (day 7, first listing in Table 3): 0.87*
Lysophosphatidylcholine (C20:4), plasma, treatment ratio versus control (day 7, second listing in Table 3): 0.67*
3-Hydroxybutyrate, plasma, treatment ratio versus control (day 14): 0.29* and 0.2*
3-O-Methylsphingosine (d18:1), plasma, treatment ratio versus control (day 14): 0.45*
5-O-Methylsphingosine (d18:1), plasma, treatment ratio versus control (day 14): 0.48*
Arginine, plasma, treatment ratio versus control (day 14): 1.59*
Campesterol, plasma, treatment ratio versus control (day 14): 0.43*
Ceramide (d18:1,C24:0), plasma, treatment ratio versus control (day 14): 0.59*
Ceramide (d18:1,C24:1), plasma, treatment ratio versus control (day 14): 0.38*
Cholesterol, plasma, treatment ratio versus control (day 14): 0.47*
Choline plasmalogen No 03, plasma, treatment ratio versus control (day 14): 0.66*
Coenzyme Q9, plasma, treatment ratio versus control (day 14): 0.27*
Coenzyme Q10, plasma, treatment ratio versus control (day 14): 0.24*
Dodecanol, plasma, treatment ratio versus control (day 14): 0.75*
Glutamate, plasma, treatment ratio versus control (day 14): 0.93
Glutamine, plasma, treatment ratio versus control (day 14): 0.8
Histidine, plasma, treatment ratio versus control (day 14): 1.37*
Homovanillic acid (HVA), plasma, treatment ratio versus control (day 14): 0.47*
Isopalmitic acid (C16:0), plasma, treatment ratio versus control (day 14): 0.49*
Lignoceric acid (C24:0), plasma, treatment ratio versus control (day 14): 0.52*
Linoleic acid (C18:cis[9,12]2), plasma, treatment ratio versus control (day 14): 0.57*
Lysine, plasma, treatment ratio versus control (day 14): 6.55*
Myristic acid (C14:0), plasma, treatment ratio versus control (day 14): 0.59*
Oleic acid (C18:cis[9]1), plasma, treatment ratio versus control (day 14): 1.01
Palmitic acid (C16:0), plasma, treatment ratio versus control (day 14): 0.56*
Palmitoleic acid (C16:cis[9]1), plasma, treatment ratio versus control (day 14): 0.55*
Phosphatidylcholine (C16:0,C18:2), plasma, treatment ratio versus control (day 14): 0.93*
Phosphatidylcholine (C18:1,C18:2), plasma, treatment ratio versus control (day 14): 0.79*
Serine, plasma, treatment ratio versus control (day 14): 1.54*
Sphingomyelin (d18:1,C16:0), plasma, treatment ratio versus control (day 14): 0.88*
Sphingomyelin (d18:1,C24:0), plasma, treatment ratio versus control (day 14): 0.62*
Sphingomyelin (d18:2,C16:0), plasma, treatment ratio versus control (day 14): 0.53*
Stearic acid (C18:0), plasma, treatment ratio versus control (day 14): 0.51*
TAG (C16:0,C16:1), plasma, treatment ratio versus control (day 14): 0.67*
Threonine, plasma, treatment ratio versus control (day 14): 1.74*
alpha-Tocopherol, plasma, treatment ratio versus control (day 14): 0.56*
beta-Sitosterol, plasma, treatment ratio versus control (day 14): 0.57*
erythro-Sphingosine, plasma, treatment ratio versus control (day 14): 0.51*
threo-Sphingosine, plasma, treatment ratio versus control (day 14): 0.5*
Lysophosphatidylcholine (C20:4), plasma, treatment ratio versus control (day 14, first listing in Table 3): 0.95*
Lysophosphatidylcholine (C20:4), plasma, treatment ratio versus control (day 14, second listing in Table 3): 0.61*
3-Hydroxybutyrate, plasma, treatment ratio versus control (day 28): 0.52* and 0.49*
3-O-Methylsphingosine (d18:1), plasma, treatment ratio versus control (day 28): 0.48*
5-O-Methylsphingosine (d18:1), plasma, treatment ratio versus control (day 28): 0.48*
5-Oxoproline, plasma, treatment ratio versus control (day 28): 0.74*
Arginine, plasma, treatment ratio versus control (day 28): 1.76*
Campesterol, plasma, treatment ratio versus control (day 28): 0.35*
Ceramide (d18:1,C24:0), plasma, treatment ratio versus control (day 28): 0.44*
Ceramide (d18:1,C24:1), plasma, treatment ratio versus control (day 28): 0.38*
Cholesterol, plasma, treatment ratio versus control (day 28): 0.49*
Choline plasmalogen No 03, plasma, treatment ratio versus control (day 28): 0.6*
Coenzyme Q9, plasma, treatment ratio versus control (day 28): 0.31*
Coenzyme Q10, plasma, treatment ratio versus control (day 28): 0.37*
Glutamate, plasma, treatment ratio versus control (day 28): 0.82*
Glutamine, plasma, treatment ratio versus control (day 28): 0.81*
Histidine, plasma, treatment ratio versus control (day 28): 1.56*
Homovanillic acid (HVA), plasma, treatment ratio versus control (day 28): 0.26*
Isopalmitic acid (C16:0), plasma, treatment ratio versus control (day 28): 0.34*
Lignoceric acid (C24:0), plasma, treatment ratio versus control (day 28): 0.6*
Linoleic acid (C18:cis[9,12]2), plasma, treatment ratio versus control (day 28): 0.38*
Lysine, plasma, treatment ratio versus control (day 28): 8.13*
Myristic acid (C14:0), plasma, treatment ratio versus control (day 28): 0.53*
Oleic acid (C18:cis[9]1), plasma, treatment ratio versus control (day 28): 0.81*
Palmitic acid (C16:0), plasma, treatment ratio versus control (day 28): 0.48*
Palmitoleic acid (C16:cis[9]1), plasma, treatment ratio versus control (day 28): 0.37*
Phosphatidylcholine (C16:0,C18:2), plasma, treatment ratio versus control (day 28): 0.92*
Phosphatidylcholine (C18:1,C18:2), plasma, treatment ratio versus control (day 28): 0.83*
Serine, plasma, treatment ratio versus control (day 28): 1.7*
Sphingomyelin (d18:1,C16:0), plasma, treatment ratio versus control (day 28): 0.79*
Sphingomyelin (d18:1,C24:0), plasma, treatment ratio versus control (day 28): 0.64*
Sphingomyelin (d18:2,C16:0), plasma, treatment ratio versus control (day 28): 0.55*
Stearic acid (C18:0), plasma, treatment ratio versus control (day 28): 0.55*
TAG (C16:0,C16:1), plasma, treatment ratio versus control (day 28): 0.66*
Threonine, plasma, treatment ratio versus control (day 28): 2.15*
beta-Sitosterol, plasma, treatment ratio versus control (day 28): 0.55*
erythro-Sphingosine, plasma, treatment ratio versus control (day 28): 0.51*
threo-Sphingosine, plasma, treatment ratio versus control (day 28): 0.51*
Lysophosphatidylcholine (C20:4), plasma, treatment ratio versus control (day 28, first listing in Table 3): 0.94*
Lysophosphatidylcholine (C20:4), plasma, treatment ratio versus control (day 28, second listing in Table 3): 0.5*
SMILES: CC(C=O)Cc1ccc(C(C)(C)C)cc1 (centres unmarked) [Lysmeral, 2-Methyl-3(4-tert.-butylphenyl)-propanal]

Source: patent US20140342379A1, “Means and Methods for Assessing Gonadal Toxicity” (BASF SE, priority 2011, published 2014)
